For series [1], the target named is T1, Nicotinamide phosphoribosyltransferase (Homo sapiens, UniProt P43490). In words: Inhibition of NAMPT catalytic domain (unknown origin) using NAM as substrate preincubated for 5 mins followed by substrate addition.
Target sequence in this assay (P43490 whole entry, the tested form may be a part): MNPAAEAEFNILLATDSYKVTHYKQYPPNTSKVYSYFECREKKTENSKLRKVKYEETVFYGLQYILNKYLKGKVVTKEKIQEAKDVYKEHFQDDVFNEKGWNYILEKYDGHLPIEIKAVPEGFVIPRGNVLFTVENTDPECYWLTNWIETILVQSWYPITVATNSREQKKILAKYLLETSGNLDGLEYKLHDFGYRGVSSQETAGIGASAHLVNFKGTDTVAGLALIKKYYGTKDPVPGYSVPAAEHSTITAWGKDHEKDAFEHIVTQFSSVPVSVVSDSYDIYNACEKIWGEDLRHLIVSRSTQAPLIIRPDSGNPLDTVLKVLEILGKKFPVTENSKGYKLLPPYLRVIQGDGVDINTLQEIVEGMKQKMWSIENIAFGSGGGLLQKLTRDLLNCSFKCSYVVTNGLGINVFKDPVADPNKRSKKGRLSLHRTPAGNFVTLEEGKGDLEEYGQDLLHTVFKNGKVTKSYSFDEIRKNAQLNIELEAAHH
In series [2] the test system is A2780. As to the kind of experiment: Cytotoxicity against human A2780 cells assessed as cell growth inhibition incubated for 72 hrs by CCK-8 assay. It counts as functional, cell-based. To be noted: A2780, 72 h. (Tetrazolium assays rely on reduction of a dye to a coloured formazan, in cell work by metabolically active cells.)
The next series concerns HUVEC. In words: Cytotoxicity against HUVEC assessed as cell growth inhibition incubated for 72 hrs by CCK-8 assay. To be noted: human. It counts as toxicity, cell-based.
Series [3] in a line: Toxicity in BALB/c nude mouse xenografted with human A2780 cells at 30 mg/kg, ip administered once daily for 14 days by caliper method. As to conditions: in vivo, 336 h, time 14 day. It counts as organism-based. For orientation: A xenograft is tissue or cells of one species grown in another, often human tumour cells in immunodeficient mice.
The target of series [4] is T1, Nicotinamide phosphoribosyltransferase. In words: Induction of NAMPT degradation in human A2780 cells at 30 nM after 24 hrs by Western blot analysis. The series is classed as cell-based. In general terms: In western blotting, separated proteins are transferred to a membrane and probed.
Target sequence in this assay (P43490 whole entry, looked up, the tested form may be a part): as the sequence (P43490 whole entry, the tested form may be a part) above
The target is the same in series [5]. As to the kind of experiment: Induction of NAMPT degradation in human A2780 cells after 24 hrs by Western blot analysis. It counts as cell-based.
Series [6] shares this target. In words: Induction of NAMPT degradation in human A2780 cells at greater than 50 nM after 24 hrs by Western blot analysis. It counts as cell-based.
Target sequence in this assay (P43490 whole entry, looked up, the tested form may be a part): as the sequence (P43490 whole entry, the tested form may be a part) above
For series [7] the target is unchanged. As to the kind of experiment: Induction of NAMPT degradation in human A2780 cells assessed as downregulation of NAD+ levels at 4.1 nM incubated for 24 hrs […]. It counts as cell-based.
Target sequence in this assay (P43490 whole entry, looked up, the tested form may be a part): as the sequence (P43490 whole entry, the tested form may be a part) above
Series [8] has the same target. As to the kind of experiment: Induction of NAMPT degradation in human A2780 cells at 30 nM after 1 hr. The series is classed as cell-based.
Target sequence in this assay (P43490 whole entry, looked up, the tested form may be a part): as the sequence (P43490 whole entry, the tested form may be a part) above
For series [9] the target is unchanged. As to the kind of experiment: Induction of NAMPT degradation in human A2780 cells at 30 nM after 24 hrs. It counts as cell-based.
Target sequence in this assay (P43490 whole entry, looked up, the tested form may be a part): as the sequence (P43490 whole entry, the tested form may be a part) above
The target is the same in series [10]. As to the kind of experiment: Induction of NAMPT degradation in human A2780 cells at 30 nM. The series is classed as cell-based. As to conditions: time 1-24 hrs, TDE = time-dependent effect.
Target sequence in this assay (P43490 whole entry, looked up, the tested form may be a part): as the sequence (P43490 whole entry, the tested form may be a part) above
The target is the same in series [11]. As to the kind of experiment: Induction of NAMPT degradation in human A2780 cells at 30 nM incubated for 24 hrs in presence of MG132. The series is classed as cell-based.
Series [12] has the same target. As to the kind of experiment: Binding affinity to NAMPT in human A2780 cells assessed as change in melting temperature at 10 uM after 2 hrs by CESTA. The series is classed as cell-based.
The target in series [13] is von Hippel-Lindau disease tumor suppressor (Homo sapiens) (UniProt P40337). In words: Binding affinity to VHL in human A2780 cells assessed as change in melting temperature at 10 uM after 2 hrs by CESTA. It counts as cell-based.
A short description of series [14]: Photostability of compound in PBS at pH 7.4. The series is classed as physicochemical. To be noted: buffer.
A short description of series [15]: Drug uptake in human A2780 cells at 1 uM after 30 mins by immunostaining based assay. The series is classed as ADME, cell-based. To be noted: a2780, 0.5 h.
Series [16] can be described thus: Drug uptake in human A2780 cells at 500 nM within 1 to 6 hrs by immunostaining based assay. It counts as ADME, cell-based. To be noted: a2780, 0.5 µM, time 1-6 hrs.
In series [17] the target is T1, Nicotinamide phosphoribosyltransferase. As to the kind of experiment: Binding affinity to NAMPT in human A2780 cells by flow cytometry analysis. It counts as cell-based. To be noted: time 0.5-24 hrs.
A short description of series [18]: Half life in Sprague-Dawley rat at 30 mg/kg, ip measured upto 24 hrs by LC-MS/MS analysis. To be noted: in vivo. It counts as ADME, organism-based.
A short description of series [19]: Tmax in Sprague-Dawley rat at 30 mg/kg, ip measured upto 24 hrs by LC-MS/MS analysis. The series is classed as ADME, organism-based. As to conditions: in vivo.
Series [20] is described as follows: Cmax in Sprague-Dawley rat at 30 mg/kg, ip measured upto 24 hrs by LC-MS/MS analysis. As to conditions: in vivo. It counts as ADME, organism-based. Also noted: dose 30 mg/kg, time < 24 hrs, route ip.
A short description of series [21]: AUC (0 to infinity) in Sprague-Dawley rat at 30 mg/kg, ip measured upto 24 hrs by LC-MS/MS analysis. It counts as ADME, organism-based. Also noted: time < 24 hrs, dose 30 mg/kg, route ip. As to conditions: in vivo.
The nature of series [22]: MRT (0 to infinity) in Sprague-Dawley rat at 30 mg/kg, ip measured upto 24 hrs by LC-MS/MS analysis. It counts as ADME, organism-based. To be noted: in vivo.
The subject of series [23] is A2780. In words: Antitumor activity against human A2780 cells xenografted in ip dosed BALB/c nude mouse administered once daily for 14 days by caliper method. The series is classed as functional, organism-based. As to conditions: dose 10-30 mg/kg, time 14.0 day, DDE = dose-dependent effect.
For series [24], the system named is A2780. In words: Antitumor activity against human A2780 cells xenografted in BALB/c nude mouse assessed as tumor growth inhibition at 10 mg/kg, ip administered once daily for 14 days by caliper method. It counts as functional. As to conditions: A2780, 336 h, time 14 day, read-out: TGI.
Series [25] relates to A2780. As to the kind of experiment: Antitumor activity against human A2780 cells xenografted in BALB/c nude mouse assessed as tumor growth inhibition at 30 mg/kg, ip administered once daily for 14 days by caliper method. The series is classed as functional. As to conditions: A2780, 336 h, time 14 day, read-out: TGI.
Series [26] can be described thus: Toxicity in BALB/c nude mouse xenografted with human A2780 cells at 10 to 30 mg/kg, ip administered once daily for 14 days by caliper method. The series is classed as organism-based. As to conditions: in vivo, 336 h, dose 10-30 mg/kg, time 14 day.
The next series has as its system Mus musculus. As to the kind of experiment: In vivo induction of NAMPT degradation in human A2780 cells xenografted in BALB/c mouse at 10 to 30 mg/kg, ip administered once daily for 14 days by immunofluorescence analysis. To be noted: dose 10-30 mg/kg, time 14.0 day. The series is classed as functional, organism-based.
Series [27] concerns A2780. In words: Cytotoxicity against human A2780 cells assessed as cell growth inhibition incubated for 72 hrs in presence of (2S,4R)-1-(2-amino-3,3-dimethyl-butanoyl)-4-hydroxy-N-[(1S)-1-[4-(4-methylthiazol-5-yl)phenyl]ethyl]pyrrolidine-2-carboxamide by CCK-8 assay. It counts as functional, cell-based. As to conditions: A2780, 72 h.
Series [28] is described as follows: Drug uptake in human A2780 cells at 500 nM within 1 to 6 hrs by confocal imaging analysis. The series is classed as ADME, cell-based. As to conditions: a2780, 0.5 µM, time 1-6 hrs.
Series [29] in a line: Drug uptake in human A2780 cells at 500 nM after 6 hrs by confocal imaging analysis. The series is classed as ADME, cell-based. As to conditions: a2780, 6 h, 0.5 µM.
Series [30] has as its target T1, Nicotinamide phosphoribosyltransferase. As to the kind of experiment: Induction of NAMPT degradation in human A2780 cells at 50 nM after 24 hrs by Western blot analysis. The series is classed as cell-based.
For series [31] the target is unchanged. In words: Induction of NAMPT degradation in human A2780 cells at 100 nM after 24 hrs by Western blot analysis. The series is classed as cell-based.

pIC50: −log10 of the molar value. Active and inactive are the calls of the source. The calls are words filed in the database; no cut-off is given here. A value given as a limit tells only on which side of the number the result lay.

Broadly, the pIC50 is the negative decadic logarithm of the IC50, by convention in mol/L. The DC50 is the concentration giving 50% degradation. A high value points to degradation only at high concentration. A word on the ΔTm: it is the shift of the melting midpoint relative to a reference. Usually half-life stands for how long it takes for the measured level to halve. Low readings indicate fast loss, high ones slow loss. Usually Tmax stands for the time at which the peak concentration occurs. For orientation: Cmax means the maximum level reached in the sampled fluid or tissue. One may read the AUC(0-inf) as total exposure, with the tail of the curve extrapolated. A low value points to less exposure. As a reminder, the MRT inf is a mean duration of stay, worked out from the concentration-time curve.

Chain of von Hippel-Lindau disease tumor suppressor (Homo sapiens) (P40337 whole entry, looked up): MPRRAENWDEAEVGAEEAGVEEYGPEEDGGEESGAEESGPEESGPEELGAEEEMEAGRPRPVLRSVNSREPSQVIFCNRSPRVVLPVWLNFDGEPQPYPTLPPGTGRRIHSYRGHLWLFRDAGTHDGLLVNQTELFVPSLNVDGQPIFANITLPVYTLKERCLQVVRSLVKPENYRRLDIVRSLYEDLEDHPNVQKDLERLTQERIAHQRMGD

For the compound `CCCn1c(=O)c(-c2ccc(C(=O)NCc3cccnc3)cc2)nc2ccccc21`, the pIC50 was 7.24 in series [1] and 7.00 with A2780 [2]. The Activity result is recorded as “Non-Toxic” in the series on HUVEC and “Toxic” in series [3].

`CCCn1c(=O)c(-c2ccc(C(=O)NCc3cccnc3)cc2)nc2ccc(NC(=O)CCCCCCCCCCC(=O)N[C@H](C(=O)N3C[C@H](O)C[C@H]3C(=O)N[C@@H](C)c3ccc(-c4scnc4C)cc3)C(C)(C)C)cc21`: the outcome in series [4], in [6], in [7], in [8], in [9] and in series [11] was Active. In addition, the result (in series [17]; in the series on Mus musculus) was Active. Besides, the pIC50 in series [1] was 7.38; with A2780 [2], 7.92; in the series on A2780 [27], 7.00. Moreover, half-maximal degradation in series [5] (DC50) was put at 0.0084 µM. The Activity entry in series [5] (DDE = dose-dependent effect) is “Dde”; with HUVEC, “Non-Toxic”; in [10] it was “Tde”; in the series with A2780 [23], “Dde”; in [26], “Non-Toxic”. Besides, the results for the ΔTm in series [12] and in series [13] were 5.11 °C and > 2.62 °C, respectively. For the same compound, in series [14], the Stability entry is reported as “Stable”. In addition, the Drug uptake result in [15] and in series [16] was “Active” throughout. The compound also gave a half-life in series [18] of 9.81 h. Also, the Tmax in [19] was determined as 4 h. In [20], this compound showed a Cmax of 0.175 µg/mL. Moreover, the AUC(0-inf) in series [21] turned out to be 1.11 µg·h/mL. The compound also yielded an MRT inf in series [22] of 12.7 h. Moreover, the inhibition in vivo at 10 mg/kg with A2780 [24] stood at 53%. Also, the inhibition in vivo at 30 mg/kg in the series with A2780 [25] turned out to be 73%.

`CCCn1c(=O)c(-c2ccc(C(=O)NCc3cccnc3)cc2)nc2ccc(NC(=O)CCCCC(=O)N[C@H](C(=O)N3C[C@H](O)C[C@H]3C(=O)N[C@@H](C)c3ccc(-c4scnc4C)cc3)C(C)(C)C)cc21`: in the series on A2780 [2], the pIC50 is 7.06.

Take `CCCn1c(=O)c(-c2ccc(C(=O)NCc3cccnc3)cc2)nc2ccc(NC(=O)CCCCCCCCCCC(=O)N[C@H](C(=O)N3C[C@@H](O)C[C@@H]3C(=O)N[C@@H](C)c3ccc(-c4scnc4C)cc3)C(C)(C)C)cc21`: the pIC50 in the series with A2780 [2] was 6.84. Besides, the Drug uptake entry in series [28] and in [29] was “Active” in each case.

Consider `CCCn1c(=O)c(-c2ccc(C(=O)NCc3cccnc3)cc2)nc2ccc(NC(=O)CCCCCCCCC(=O)N[C@H](C(=O)N3C[C@H](O)C[C@H]3C(=O)N[C@@H](C)c3ccc(-c4scnc4C)cc3)C(C)(C)C)cc21`, for which the result in series [4] and in series [30] was Active. Also, the pIC50 with A2780 [2] was 7.85.

As for `CCCn1c(=O)c(-c2ccc(C(=O)NCc3cccnc3)cc2)nc2ccc(NC(=O)CCCCCCC(=O)N[C@H](C(=O)N3C[C@H](O)C[C@H]3C(=O)N[C@@H](C)c3ccc(-c4scnc4C)cc3)C(C)(C)C)cc21`, the outcome in series [4] and in series [31] was Active. Moreover, the pIC50 in the series with A2780 [2] is 7.68.

The record behind these values is ChEMBL document CHEMBL5150057, “Making Protein Degradation Visible: Discovery of Theranostic PROTACs for Detecting and Degrading NAMPT” (J Med Chem, 2022).
